Tested on: soybean rust
Assay: Seed dressing trial, activity against soybean rust
Format: in vivo, soybean rust on soybean plants (cultivar BRS 133)
Conditions: soybean seeds cultivar BRS 133 treated with 1000 g orysastrobin/100 kg of seed (SC, 250 g/l, liquid dressing); inoculated 3 weeks after sowing; assessed 11 days after inoculation; untreated-seed plants 79% infected
Procedure: Seed dressing trial, activity against soybean rust
Soybean seeds of the cultivar BRS 133 were treated with 1000 g of orysastrobin/100 kg of seed, formulated as SC with 250 g of active compound per liter, as liquid dressing, then sown into pots and cultivated in a greenhouse at about 22° C. 3 weeks after sowing, the plants were inoculated with soybean rust, incubated at 100% relative atmospheric humidity for 24 hours and then again cultivated in the greenhouse. At the time of inoculation, the first pair of leaves and one subsequent leaf had developed. The infection of the leaves was assessed 11 days after the inoculation.

CNC(=O)/C(=N/OC)c1ccccc1CO/N=C(C)/C(=N/OC)C(C)=NOC (stereo in doubt) [orysastrobin, (2E)-2-(methoxyimino)-2-{2-[(3E,5E,6E)-5-(methoxyimino)-4,6-dimethyl-2,8-dioxa-3,7-diazanona-3,6-dien-1-yl]phenyl}-N-methylacetamide]
total infection of the leaves: less than 1%

Source: US20080153824A1, “Method for Controlling Fungal Diseases in Leguminous Plants” (BASF Aktiengesellschaft, priority 2004, published 2008)
